Several values for one entry are separate records, joined by “and”; a condition that tells them apart may be missing. Identical values can stand only once.

The source of these data is PubChem BioAssay AID2060497 (Molecular Pharmacology Branch, DTP, NCI, 2025).

This test deals with 317291-083-R-J1-PDC complex spheroids, viability. Briefly: Anticancer human tumor 317291-083-R-J1-PDC patient-derived soft tissue sarcoma cell line growth inhibition [GQUAD]. The note with it: for viability, T/C: stronger effect = lower value. From the text:
DNA G-quadruplex Stabilizer Agents in Combinations in Complex Spheroids
A high-throughput screen of multi-cell type tumor spheroids was designed to identify active combinations of DNA G-quadruplex stabilizer agents and targeted small molecules. Complex spheroids include a stromal component modeled by human endothelial cells (HUVEC) and fibroblasts modeled by human mesenchymal stem cells (MSCs). The concentration ranges selected for each drug and investigational agent were based upon clinically achievable concentrations if the clinical Cmax of the agent was known.
Compounds. The drugs and investigational agents: pidnarulex (CX-5461; NSC782164), APTO-253 (NSC789042), BRACO-19 (NSC847499), peposertib (NSC802822), ceralasertib (NSC780249), elimusertib (NSC800525), camonsertib (NSC841442), AZD-1390 (NSC803789), olaparib (NSC753686), talazoparib (NSC767125), ART-558 (NSC835418), sotorasib (NSC818433), MRTX-1133 (NSC836407), SN-38 (NSC673596), topotecan (NSC609699), etoposide (NSC141540), doxorubicin (NSC123127), gemcitabine (NSC613327), 5-fluorouracil (NSC19893), paclitaxel (NSC125973), vemurafenib (NSC761431), panobinostat (NSC761190), R-306465 (JNJ-16241199; NSC773264), adavosertib (NSC754352), TP-3654 (NSC805149), carboplatin (NSC241240), KSQ-4279 (NSC840948), and staurosporine (NSC755774) were obtained from the National Cancer Institute (NCI) Developmental Therapeutics Program Chemical Repository (34). The FDA-approved anticancer drug set is available from the NCI Developmental Therapeutics Program. […] The stock solutions were prepared in dimethyl sulfoxide (DMSO, Sigma-Aldrich, St. Louis, MO, cat. D2650) at 800-fold the tested concentration and stored at -70 degrees C prior to their use. All drugs and investigational agents were tested over a range starting from a high concentration at or near the clinical Cmax and decreasing in half-log increments. If the clinical Cmax for an agent had not been determined, the highest concentration tested was 10 microM.
2.3 Cell Culture. All cells were maintained in an incubator at 37 degrees C and 5% CO2 with 95% humidity. The PDC lines were cultured according to standard operating procedures established by the NCI PDMR. All PDCs were thawed and cultured in Matrigel-coated flasks prepared with a working solution of 1X Ham's F-12 nutrient mix, without supplementation (Invitrogen, cat. 11765054), 100 U/mL penicillin-streptomycin (Invitrogen, cat. 15140122), and 2.5% Matrigel (Corning Inc., cat. 354248) for the first three passages. The 857933-349-R-J2-PDC line was cultured in 6C/Colon 1B media, which includes advanced DMEM/F-12 (Thermo Fisher Scientific, cat. 12634028), 10 mM HEPES (Thermo Fisher Scientific, cat. 15630080), 1X GlutaMAX supplement (Thermo Fisher Scientific, cat. 35050061), 0.1 mg/mL primocin (InvivoGen, cat. ant-pm-2), 10% defined fetal bovine serum, heat inactivated (HyClone Laboratories Inc., cat. SH30070.03HI), 50% L-WRN conditioned media (ATCC, cat. CRL-3276), 1.25 mM N-Acetyl-L-cysteine (Sigma-Aldrich, cat. A9165), 10 mM nicotinamide (Sigma-Aldrich, cat. N0636), 1X B-27 supplement (Thermo Fisher Scientific, cat. 17504044), 1X N-2 supplement (Thermo Fisher Scientific, cat. 17502048), 10 microM Y-27632 dihydrochloride (Tocris Bioscience, cat. 1254), and 50 ng/mL human EGF recombinant protein (Thermo Fisher Scientific, cat. PHG0311). The 485176-168-R4-J1-PDC line was cultured in Panc media, which includes all 6C/Colon 1B media components plus 100 ng/mL human FGF-10 (Thermo Fisher Scientific, cat. 100-26), 500 nM SB-431542 (Selleckchem, cat. S1067), and gastrin (Tocris, cat. 3006).
[…]

Setting [1] is: curve of first compound, second compound 0.0316 µM.
Setting [2] is: curve of first compound, second compound 0.1 µM.
Setting [3] is: curve of first compound, second compound 0.316 µM.
Where [4] appears, read: curve of first compound, second compound 1 µM.
[5] abbreviates: curve of first compound, second compound 3.16 µM.
Where [6] appears, read: curve of first compound, second compound 10 µM.
[7] abbreviates: second compound 0.0316 µM, first compound 0.0316 µM.
[8] abbreviates: second compound 0.0316 µM, first compound 0.316 µM.
Where [9] appears, read: second compound 0.1 µM, first compound 0.0316 µM.
[10] abbreviates: second compound 0.1 µM, first compound 0.316 µM.
The mark [11] stands for this setting: second compound 0.316 µM, first compound 0.0316 µM.
Setting [12] is: second compound 0.316 µM, first compound 0.316 µM.
Where [13] appears, read: second compound 1 µM, first compound 0.0316 µM.
Setting [14] is: second compound 1 µM, first compound 0.316 µM.
The mark [15] stands for this setting: second compound 3.16 µM, first compound 0.0316 µM.
Where [16] appears, read: second compound 3.16 µM, first compound 0.316 µM.
Where [17] appears, read: second compound 10 µM, first compound 0.0316 µM.
Setting [18] is: second compound 10 µM, first compound 0.316 µM.
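Note: spheroids exposed to compounds for one week before readout.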
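Throughout, for viability, T/C: percent viability relative to DMSO vehicle wells taken as 100%.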

One may read the viability, T/C as the result in the treated group divided by that in the control group, in per cent. The IC50 is the concentration that gives 50% inhibition. Regarding `COc1ncnc(C2CC2)c1-c1ncc2cnn(Cc3ccc(-c4nc(C(F)(F)F)cn4C(C)C)cc3)c2n1`, the viability, T/C by setting is: (compound 0.0316 µM) 103% and 107% and 108%; (compound 0.1 µM) 92.9% and 85.3% and 81.5%; (compound 0.316 µM) 92.4% and 71.4% and 68.1%; (compound 1 µM) 74.2% and 64.1% and 68.2%; (compound 3.16 µM) 100% and 63.6% and 68.3%; (compound 10 µM) 76.2% and 72.3% and 64.5%. Besides, the IC50 (curve of compound) was > 10000 nM.

For the compound `Cn1ncnc1[C@H]1c2n[nH]c(=O)c3cc(F)cc(c23)N[C@@H]1c1ccc(F)cc1` + Cc1cnc(CNC(=O)c2c(=O)c3ccc(N4CCCN(C)CC4)nc3n3c2sc2ccccc23)cn1, the IC50 is 246 nM under setting [1]; 24.2 nM under setting [2]; < 0.999 nM under setting [3]; < 0.999 nM under setting [4]; < 0.999 nM under setting [5]; < 0.999 nM under setting [6]. Also, the viability, T/C runs as follows: (second compound 0.0316 µM, first compound 0.000999 µM) 88.6%; (second compound 0.0316 µM, first compound 0.00316 µM) 106%; (second compound 0.0316 µM, first compound 0.00999 µM) 75.6%; under setting [7], 74%; (second compound 0.0316 µM, first compound 0.0999 µM) 59.8%; under setting [8], 46.8%. For the same compound, the viability, T/C by setting is: (second compound 0.1 µM, first compound 0.000999 µM) 73.8%; (second compound 0.1 µM, first compound 0.00316 µM) 74.7%; (second compound 0.1 µM, first compound 0.00999 µM) 49.7%; under setting [9], 50.4%; (second compound 0.1 µM, first compound 0.0999 µM) 37.9%; under setting [10], 25.3%. The viability, T/C reads like this: (second compound 0.316 µM, first compound 0.000999 µM) 46.1%; (second compound 0.316 µM, first compound 0.00316 µM) 42.7%; (second compound 0.316 µM, first compound 0.00999 µM) 41.2%; under setting [11], 25.5%; (second compound 0.316 µM, first compound 0.0999 µM) 36.7%; under setting [12], 24.2%. Further, the viability, T/C by setting is: (second compound 1 µM, first compound 0.000999 µM) 32.2%; (second compound 1 µM, first compound 0.00316 µM) 35.5%; (second compound 1 µM, first compound 0.00999 µM) 31.4%; under setting [13], 21.1%; (second compound 1 µM, first compound 0.0999 µM) 24.3%; under setting [14], 23.9%. Further, the viability, T/C by setting is: (second compound 3.16 µM, first compound 0.000999 µM) 17.3%; (second compound 3.16 µM, first compound 0.00316 µM) 13.4%; (second compound 3.16 µM, first compound 0.00999 µM) 16.9%; under setting [15], 17.2%; (second compound 3.16 µM, first compound 0.0999 µM) 20.3%; under setting [16], 12.7%. Moreover, the viability, T/C runs as follows: (second compound 10 µM, first compound 0.000999 µM) 41%; (second compound 10 µM, first compound 0.00316 µM) 35.4%; (second compound 10 µM, first compound 0.00999 µM) 25.4%; under setting [17], 34.6%; (second compound 10 µM, first compound 0.0999 µM) 29.9%; under setting [18], 25.4%.

With `CCCS(=O)(=O)Nc1ccc(F)c(C(=O)c2c[nH]c3ncc(-c4ccc(Cl)cc4)cc23)c1F`, the viability, T/C (compound 0.0316 µM) was 104% and 114% and 118%; the viability, T/C (compound 0.1 µM) was 97.3% and 110% and 95%; the viability, T/C (compound 0.316 µM) is 102% and 113% and 121%; the viability, T/C (compound 1 µM) is 86.6% and 83.1% and 87%; the viability, T/C (compound 3.16 µM) was 46.4% and 66% and 62.4%; the viability, T/C (compound 10 µM) is 12.2% and 13.6% and 14.5%. For the setting “curve of compound”, the half-maximal inhibitory concentration (IC50) is 2840 nM and 4300 nM and 4140 nM.

Turning to `O=C(NO)c1cnc(N2CCN(S(=O)(=O)c3ccc4ccccc4c3)CC2)nc1` + Cc1[nH]c2ccc(F)cc2c1-c1nc2c3cccnc3c3ncccc3c2[nH]1, the half-inhibitory concentration (IC50) is, setting by setting: under setting [1], 153 nM; under setting [2], 211 nM; under setting [3], 113 nM; under setting [4], 60.2 nM; under setting [5], < 31.6 nM; under setting [6], < 31.6 nM. The viability, T/C under setting [7] was 99.5%; the viability, T/C (second compound 0.0316 µM, first compound 0.1 µM) is 71.4%; the viability, T/C under setting [8] is 13.9%; the viability, T/C (second compound 0.0316 µM, first compound 1 µM) was 0.16%; the viability, T/C (second compound 0.0316 µM, first compound 3.16 µM) is 0.07%; the viability, T/C (second compound 0.0316 µM, first compound 10 µM) was 0.9%. Also, the viability, T/C runs as follows: under setting [9], 117%; (second compound 0.1 µM, first compound 0.1 µM) 102%; under setting [10], 22.1%; (second compound 0.1 µM, first compound 1 µM) 0.09%; (second compound 0.1 µM, first compound 3.16 µM) 0.03%; (second compound 0.1 µM, first compound 10 µM) 0.45%. Further, the viability, T/C under setting [11] was 66.5%; the viability, T/C (second compound 0.316 µM, first compound 0.1 µM) is 55.2%; the viability, T/C under setting [12] was 6.53%; the viability, T/C (second compound 0.316 µM, first compound 1 µM) is 0.09%; the viability, T/C (second compound 0.316 µM, first compound 3.16 µM) is 0.04%; the viability, T/C (second compound 0.316 µM, first compound 10 µM) was 0.16%. In addition, the viability, T/C is 60.6% under setting [13]; 41.6% (second compound 1 µM, first compound 0.1 µM); 10.5% under setting [14]; 0.06% (second compound 1 µM, first compound 1 µM); 0.09% (second compound 1 µM, first compound 3.16 µM); 0.07% (second compound 1 µM, first compound 10 µM). In addition, the viability, T/C was 42.7% under setting [15]; 19.4% (second compound 3.16 µM, first compound 0.1 µM); 3.52% under setting [16]; 0.44% (second compound 3.16 µM, first compound 1 µM); 0.18% (second compound 3.16 µM, first compound 3.16 µM); 0.72% (second compound 3.16 µM, first compound 10 µM). Besides, the viability, T/C is 42.9% under setting [17]; 35.3% (second compound 10 µM, first compound 0.1 µM); 4.65% under setting [18]; 0.13% (second compound 10 µM, first compound 1 µM); 0.22% (second compound 10 µM, first compound 3.16 µM); 0.17% (second compound 10 µM, first compound 10 µM).

Consider `O=c1[nH]cc(F)c(=O)[nH]1`, for which the viability, T/C is 102% and 111% and 94.4% (compound 0.0316 µM); 112% and 101% and 100% (compound 0.1 µM); 95.9% and 101% and 111% (compound 0.316 µM); 59.7% and 96.8% and 66.8% (compound 1 µM); 35% and 34% and 49.6% (compound 3.16 µM); 36.3% and 23.9% and 38.4% (compound 10 µM). Moreover, the 50% inhibitory concentration (IC50) (curve of compound) is 1600 nM and 2360 nM and 2340 nM.
